For assay [1], the target named is T1, NS5B from the BK strain (genotype 1b) (Hepatitis C virus genotype 1b, UniProt P26663).
T1 construct: NS5B from the BK strain (genotype 1b) is expressed in E coli as a protein in which the 21 C-terminal amino acids are replaced; made in house; host or cells: E. coli
Nature of the assay: Hepatitis C polymerase (NS5B, BK strain) inhibition, radioactive filter assay. Format: biochemical. To be noted: NS5B BK strain (genotype 1b). Put shortly:
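E. coli-expressed C-terminally truncated His-tagged NS5B preincubated 15 min with compound at room temperature, then run 2 h at 22-25 °C on a hairpin-primed heteropolymeric RNA template (~3 nM) with radioactive nucleotides. EDTA stop; ~760 nt 33P product captured on filters, washed with phosphate buffer pH 7.0, scintillation counted.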

Assay [2] has as its target BB7 RNA-dependent RNA polymerase hepatitis C virus protein (Con1 HCV sequence) (Hepatitis C virus genotype 1b, UniProt Q9WMX2). The experiment in a line: Hepatitis C polymerase (BB7) inhibition. The format is biochemical. Put shortly:
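Con1 (BB7) replicon-derived NS5B polymerase preincubated with compound (15% DMSO) 15 min at room temperature, then RNA template (~3 nM pOF) and nucleotides added. Reaction run 2 h at 22-25° C., stopped with EDTA (85 mM final). ^33P-labelled product captured on filters, washed with 0.5 M sodium phosphate pH 7.0, scintillation counted.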

The mark [3] stands for this setting: BB7 (Con1) NS5B, read-out: BB7 IC50.

Molecules are shown by their SMILES. Where two headings read alike, the source gives them in different places.

Sequence of BB7 RNA-dependent RNA polymerase hepatitis C virus protein (Con1 HCV sequence) (Q9WMX2 2420-3010): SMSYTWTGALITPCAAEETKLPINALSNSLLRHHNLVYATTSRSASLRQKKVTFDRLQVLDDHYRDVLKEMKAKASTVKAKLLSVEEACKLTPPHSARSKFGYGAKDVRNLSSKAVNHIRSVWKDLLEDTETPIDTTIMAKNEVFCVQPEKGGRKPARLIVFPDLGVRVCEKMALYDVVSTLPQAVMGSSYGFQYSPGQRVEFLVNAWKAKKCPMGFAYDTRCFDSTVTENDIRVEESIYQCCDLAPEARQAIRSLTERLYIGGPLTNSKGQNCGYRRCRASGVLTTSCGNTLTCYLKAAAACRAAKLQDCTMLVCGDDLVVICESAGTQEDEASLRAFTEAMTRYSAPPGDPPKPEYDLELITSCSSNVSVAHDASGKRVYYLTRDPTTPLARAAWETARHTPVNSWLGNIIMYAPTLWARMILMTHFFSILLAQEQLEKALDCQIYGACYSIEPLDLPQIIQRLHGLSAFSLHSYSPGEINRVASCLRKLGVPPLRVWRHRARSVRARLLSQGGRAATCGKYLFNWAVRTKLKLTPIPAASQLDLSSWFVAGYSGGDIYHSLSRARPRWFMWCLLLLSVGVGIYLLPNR
T1 sequence (P26663 2420-2989): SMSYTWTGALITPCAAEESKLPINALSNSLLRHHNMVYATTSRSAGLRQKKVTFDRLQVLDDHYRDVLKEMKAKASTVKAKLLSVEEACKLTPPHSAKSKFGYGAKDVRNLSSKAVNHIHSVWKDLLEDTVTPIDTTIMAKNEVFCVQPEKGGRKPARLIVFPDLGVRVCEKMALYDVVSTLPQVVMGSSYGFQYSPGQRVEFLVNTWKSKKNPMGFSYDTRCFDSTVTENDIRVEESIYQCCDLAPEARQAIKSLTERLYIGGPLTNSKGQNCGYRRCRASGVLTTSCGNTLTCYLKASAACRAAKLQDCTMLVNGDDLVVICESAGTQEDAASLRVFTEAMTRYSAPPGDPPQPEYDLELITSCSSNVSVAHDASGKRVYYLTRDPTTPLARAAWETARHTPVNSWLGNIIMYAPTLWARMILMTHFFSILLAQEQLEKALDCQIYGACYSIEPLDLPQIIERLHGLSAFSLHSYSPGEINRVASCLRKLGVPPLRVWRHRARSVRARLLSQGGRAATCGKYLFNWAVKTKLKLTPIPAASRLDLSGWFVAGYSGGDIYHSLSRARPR

In general, IC50 refers to the concentration needed to halve the response being measured. For the compound `CCCC1(CC(=O)O)OCCc2c1[nH]c1c(C)c(OCCOCCOC)cc(C#N)c21` (centres unmarked) [Example 115], the IC50 in assay [1] and in assay [2] (setting [3]) was < 500 nM throughout.

On to `CCCC1(CC(=O)O)OCCc2c1[nH]c1c(C)c(OCc3cc(C)on3)cc(C#N)c21` (centres unmarked) [Example 56], for which the IC50 in assay [1] and in assay [2] was < 500 nM throughout.

Consider `CCCC1(CC(=O)O)OCCc2c1[nH]c1c(C)c(OCc3nsc(N(C)C)n3)cc(C#N)c21` (centres unmarked) [Example 136], for which the IC50 in assay [1] and in assay [2] (setting [3]) was < 500 nM each time.

`CCCC1(CC(=O)O)OCCc2c1[nH]c1c(C)c(CO[C@@H]3CCOC3)cc(C#N)c21` (mixture of isomers) [Example 14, (3′R,1S*)[5-Cyano-8-methyl-1-propyl-7-(tetrahydro-furan-3-yloxymethyl)-1,3,4,9-tetrahydro-pyrano[3,4-b]indol-1-yl]-acetic acid]: the IC50 in assay [1] and in assay [2] was 500 to 5000 nM in each case.

Regarding `CCCC1(CC(=O)O)OCCc2c1[nH]c1c(C)c(COCC3CC3)cc(C#N)c21` (centres unmarked) [Example 8, (5-Cyano-7-cyclopropylmethoxymethyl-8-methyl-1-propyl-1,3,4,9-tetrahydro-pyrano[3,4-b]indol-1-yl)-acetic acid], the results for the IC50 in assay [1] and in assay [2] were 500 to 5000 nM and < 500 nM, respectively.

Turning to `CCCC1(CC(=O)O)OCCc2c1[nH]c1c(C)c(OCc3csc(C(C)C)n3)cc(C#N)c21` (centres unmarked) [Example 72], the IC50 in assay [1] and in assay [2] (setting [3]) was < 500 nM each time.

Turning to `CCC[C@]1(CC(=O)O)OCCc2c1[nH]c1c(C)c(OCc3conc3C)cc(C#N)c21` [Example 125], the IC50 in assay [1] and in assay [2] was < 500 nM each time.

On to `CCCC1(CC(=O)O)OCCc2c1[nH]c1c(C)c(OCCOCc3ccccc3)cc(C#N)c21` (centres unmarked) [Example 117], for which the IC50 in assay [1] and in assay [2] was < 500 nM in each case.

`CCCC1(CC(=O)O)OCCc2c1[nH]c1c(C)c(OCCCSC)cc(C#N)c21` (centres unmarked) [Example 142]: the IC50 in assay [1] and in assay [2] was < 500 nM in each case.

Consider `CCCC1(CC(=O)O)OCCc2c1[nH]c1c(C)c(OCc3ccon3)cc(C#N)c21` (centres unmarked) [Example 124], for which the IC50 in assay [1] and in assay [2] was < 500 nM each time.

Turning to `CCCC1(CC(=O)O)OCCc2c1[nH]c1c(C)c(OCc3ccccn3)cc(C#N)c21` (centres unmarked) [Example 49], the IC50 in assay [1] and in assay [2] was < 500 nM each time.

Take `CCCC1(CC(=O)O)OCCc2c1[nH]c1c(C)c(OCc3cc(CC)n(CC)n3)cc(C#N)c21` (centres unmarked) [Example 138]: the IC50 in assay [1] and in assay [2] (setting [3]) was < 500 nM in each case.

Take `CCCC1(CC(=O)O)OCCc2c1[nH]c1c(C)c(OCc3cc(C)n(C)n3)cc(C#N)c21` (centres unmarked) [Example 78]: the IC50 in assay [1] and in assay [2] was < 500 nM in each case.

As for `CCCC1(CC(=O)O)OCCc2c1[nH]c1c(C)c(COc3ccccc3)cc(C#N)c21` (centres unmarked) [Example 20, (5-Cyano-8-methyl-7-phenoxymethyl-1-propyl-1,3,4,9-tetrahydro-pyrano[3,4-b]indol-1-yl)-acetic acid], the IC50 in assay [1] and in assay [2] was 500 to 5000 nM throughout.

Take `CCCC1(CC(=O)O)OCCc2c1[nH]c1c(C)c(OCCCc3cc(C)no3)cc(C#N)c21` (centres unmarked) [Example 89]: the IC50 in assay [1] and in assay [2] was < 500 nM in each case.

As for `CCCC1(CC(=O)O)OCCc2c1[nH]c1c(C)c(OCc3ccnc(C(C)(C)O)c3)cc(C#N)c21` (centres unmarked) [Example 91], the half-inhibitory concentration (IC50) in assay [1] and in assay [2] was < 500 nM each time.

Turning to `CCCC1(CC(=O)O)OCCc2c1[nH]c1c(C)c(OCc3nsc(N(CC)CC)n3)cc(C#N)c21` (centres unmarked) [Example 132], the concentration for half-maximal inhibition (IC50) in assay [1] and in assay [2] was < 500 nM in each case.

Turning to `CCCC1(CC(=O)O)OCCc2c1[nH]c1c(C)c(O)cc(C#N)c21` (centres unmarked) [Example 45], the half-inhibitory concentration (IC50) in assay [1] and in assay [2] was < 500 nM throughout.

Take `CCC[C@]1(CC(=O)O)OCCc2c1[nH]c1c(C)c(OCCOC)cc(C#N)c21` [Example 44]: the IC50 in assay [1] and in assay [2] was < 500 nM throughout.

The values are drawn from patent US20070219212A1, “Pyranouidole Derivatives and the Use Thereof for the Treatment of Hepatitis C Virus Infection or Disease” (priority 2004, published 2007).
